Key:
[1] = system: Per1::dluc NIH 3T3 cells; test: Real-time monitoring of circadian rhythm, Per1::dluc NIH 3T3; format: cell-based, mouse
Experimental: We used Bmal1::dluc U2-OS and Per1::dluc NIH 3T3, and continuously monitored the bioluminescence to record circadian rhythm. This experiment was performed in 96-well plates (triplicates) and 35-mm dishes (duplicates) in the secondary screen and detailed characterization steps respectively. Briefly, cells were seeded to reach confluency. A day after, the medium was replaced with DMEM containing 0.1 μM Dexamethasone to synchronize cells. […] The 96-well plates were covered and bioluminescence was monitored by Synergy H1 Hybrid Multi-Mode Reader every 32 minutes. […] Bioluminescence was recorded every 10 minutes for 4-6 days. […] The first day's data was excluded from the analysis due to transient perturbations of luminescence after the medium change.
We used Bmal1::dluc U2-OS and Per1::dluc NIH 3T3, and continuously monitored the bioluminescence to record circadian rhythm. […] The 96-well plates were covered and bioluminescence was monitored by Synergy H1 Hybrid Multi-Mode Reader every 32 minutes. […] Bioluminescence was recorded every 10 minutes for 4-6 days. […] The first day's data was excluded from the analysis due to transient perturbations of luminescence after the medium change.

[2] = molecular target: T1, NAV2 (Homo sapiens, UniProt Q8IVL1); test: LC-MS/MS of pull-down precipitates, NAV2; format: binding; details: Competitor 0 μM
T1 construct: endogenous in cells; host or cells: HEK 293T
Experimental: (§1) HEK293T cells were transiently transfected with tag-free hsClock and mBmal1. After 48 hours of transfection, cells were harvested and whole cell lysate was prepared with ice-cold lysis buffer (50 mM Tris-HCl pH 7.4, 2 mM EDTA, 1 mM MgCl2, 0.2% NP-40, 1 mM sodium orthovanadate, 1 mM sodium fluoride and protease inhibitor cocktail) followed by centrifugation at 7000×g at 4° C. for 10 minutes. Lysate was diluted with ice-cold 2× binding buffer (100 mM Tris-HCl pH 7.4, 300 mM NaCl, 0.2% NP-40, 2 mM sodium orthovanadate, 2 mM sodium fluoride, and protease inhibitor cocktail) 27. The lysate was divided into three fractions to be treated with either DMSO, or 20 μM of bitoinylated-CLK8 (bait) with or without 200 μM CLK8 (competitor). […]
(§2) The next step was to check for off-targets of CLK8. […] Since the amount of precipitated endogenous CLOCK was insufficient to be detected in LC-MS/MS, whole cell lysate of HEK 293T cells overexpressing CLOCK and BMAL1 were used for LC-MS/MS. We determined proteins that potentially bind to CLK8 by utilizing a minimum threshold for peptide spectrum matches and coverage equal to those of the main target, CLOCK. We also excluded proteins that have been detected in negative controls of the CRAPome database (32), assuming them as abundant sticky proteins. […] BMAL1 was detected in lower amounts when a competitor was present. […]

[3] = system: PER2, NPAS2, BMAL1 and CRY1; test: Cytosol-nuclear fractionation of U2OS cells, other clock proteins; format: cell-based, human; details: 20 μM, two days
Experimental: U2 OS cells treated with 20 μM CLK8 and 0.5% DMSO were used for fractionation analysis. The 4×10^5 was suspended in 500 ul cytosolic lysis buffer (10 mM HEPES pH 7,9, 10 mM KCl, 0.1 mM EDTA, 0.05% NP40 with protease inhibitors) and incubated on ice for 10 minutes. The lysate was centrifuged for 3 minutes at 3000 rpm at 4° C. The resulting supernatant was centrifuged one more time and supernatant collected as cytosolic fraction. On the other hand, the resulting pellet from lysate centrifugation was suspended in nuclear lysis buffer (20 mM HEPES pH 7.9, 0.4 M NaCl, 1 mM EDTA, 10% glycerol with protease inhibitors) and sonicated 2 times 10 seconds with 60% power. After centrifuge at 15 000 g for 5 minutes at 4° C., supernatant was collected as nuclear fraction. Collected fractions were used for Western Blot analysis. Fractionation efficiency was checked with Western Blot by using tubulin (Sigma T9026) as cytosolic marker and Histone-H3 (abcam ab1791) as nuclear marker.

[4] = molecular target: T2, BMAL1 (Mus musculus, UniProt Q9WTL8); test: LC-MS/MS of pull-down precipitates, BMAL1; format: binding; details: Competitor 0 μM
T2 construct: expressed in transfected cells; host or cells: HEK 293T
Experimental: as §1, §2

T2 sequence (Q9WTL8 whole entry): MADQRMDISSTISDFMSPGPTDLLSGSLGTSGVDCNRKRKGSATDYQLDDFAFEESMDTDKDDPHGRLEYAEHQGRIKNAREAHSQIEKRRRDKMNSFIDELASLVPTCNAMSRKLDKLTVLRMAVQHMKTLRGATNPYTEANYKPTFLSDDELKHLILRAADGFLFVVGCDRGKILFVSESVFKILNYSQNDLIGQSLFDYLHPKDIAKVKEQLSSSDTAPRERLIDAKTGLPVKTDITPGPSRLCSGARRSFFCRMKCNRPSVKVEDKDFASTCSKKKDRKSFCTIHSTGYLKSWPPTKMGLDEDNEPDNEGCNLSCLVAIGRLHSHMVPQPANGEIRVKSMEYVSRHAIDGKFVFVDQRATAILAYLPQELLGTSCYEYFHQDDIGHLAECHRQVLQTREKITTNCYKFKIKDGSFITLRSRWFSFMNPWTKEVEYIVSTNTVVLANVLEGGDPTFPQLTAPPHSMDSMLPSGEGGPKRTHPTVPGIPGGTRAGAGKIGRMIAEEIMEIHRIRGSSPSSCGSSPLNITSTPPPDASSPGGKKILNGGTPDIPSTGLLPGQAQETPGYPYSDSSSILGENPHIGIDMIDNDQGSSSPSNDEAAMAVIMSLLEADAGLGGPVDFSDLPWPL
T1 sequence (Q8IVL1 whole entry): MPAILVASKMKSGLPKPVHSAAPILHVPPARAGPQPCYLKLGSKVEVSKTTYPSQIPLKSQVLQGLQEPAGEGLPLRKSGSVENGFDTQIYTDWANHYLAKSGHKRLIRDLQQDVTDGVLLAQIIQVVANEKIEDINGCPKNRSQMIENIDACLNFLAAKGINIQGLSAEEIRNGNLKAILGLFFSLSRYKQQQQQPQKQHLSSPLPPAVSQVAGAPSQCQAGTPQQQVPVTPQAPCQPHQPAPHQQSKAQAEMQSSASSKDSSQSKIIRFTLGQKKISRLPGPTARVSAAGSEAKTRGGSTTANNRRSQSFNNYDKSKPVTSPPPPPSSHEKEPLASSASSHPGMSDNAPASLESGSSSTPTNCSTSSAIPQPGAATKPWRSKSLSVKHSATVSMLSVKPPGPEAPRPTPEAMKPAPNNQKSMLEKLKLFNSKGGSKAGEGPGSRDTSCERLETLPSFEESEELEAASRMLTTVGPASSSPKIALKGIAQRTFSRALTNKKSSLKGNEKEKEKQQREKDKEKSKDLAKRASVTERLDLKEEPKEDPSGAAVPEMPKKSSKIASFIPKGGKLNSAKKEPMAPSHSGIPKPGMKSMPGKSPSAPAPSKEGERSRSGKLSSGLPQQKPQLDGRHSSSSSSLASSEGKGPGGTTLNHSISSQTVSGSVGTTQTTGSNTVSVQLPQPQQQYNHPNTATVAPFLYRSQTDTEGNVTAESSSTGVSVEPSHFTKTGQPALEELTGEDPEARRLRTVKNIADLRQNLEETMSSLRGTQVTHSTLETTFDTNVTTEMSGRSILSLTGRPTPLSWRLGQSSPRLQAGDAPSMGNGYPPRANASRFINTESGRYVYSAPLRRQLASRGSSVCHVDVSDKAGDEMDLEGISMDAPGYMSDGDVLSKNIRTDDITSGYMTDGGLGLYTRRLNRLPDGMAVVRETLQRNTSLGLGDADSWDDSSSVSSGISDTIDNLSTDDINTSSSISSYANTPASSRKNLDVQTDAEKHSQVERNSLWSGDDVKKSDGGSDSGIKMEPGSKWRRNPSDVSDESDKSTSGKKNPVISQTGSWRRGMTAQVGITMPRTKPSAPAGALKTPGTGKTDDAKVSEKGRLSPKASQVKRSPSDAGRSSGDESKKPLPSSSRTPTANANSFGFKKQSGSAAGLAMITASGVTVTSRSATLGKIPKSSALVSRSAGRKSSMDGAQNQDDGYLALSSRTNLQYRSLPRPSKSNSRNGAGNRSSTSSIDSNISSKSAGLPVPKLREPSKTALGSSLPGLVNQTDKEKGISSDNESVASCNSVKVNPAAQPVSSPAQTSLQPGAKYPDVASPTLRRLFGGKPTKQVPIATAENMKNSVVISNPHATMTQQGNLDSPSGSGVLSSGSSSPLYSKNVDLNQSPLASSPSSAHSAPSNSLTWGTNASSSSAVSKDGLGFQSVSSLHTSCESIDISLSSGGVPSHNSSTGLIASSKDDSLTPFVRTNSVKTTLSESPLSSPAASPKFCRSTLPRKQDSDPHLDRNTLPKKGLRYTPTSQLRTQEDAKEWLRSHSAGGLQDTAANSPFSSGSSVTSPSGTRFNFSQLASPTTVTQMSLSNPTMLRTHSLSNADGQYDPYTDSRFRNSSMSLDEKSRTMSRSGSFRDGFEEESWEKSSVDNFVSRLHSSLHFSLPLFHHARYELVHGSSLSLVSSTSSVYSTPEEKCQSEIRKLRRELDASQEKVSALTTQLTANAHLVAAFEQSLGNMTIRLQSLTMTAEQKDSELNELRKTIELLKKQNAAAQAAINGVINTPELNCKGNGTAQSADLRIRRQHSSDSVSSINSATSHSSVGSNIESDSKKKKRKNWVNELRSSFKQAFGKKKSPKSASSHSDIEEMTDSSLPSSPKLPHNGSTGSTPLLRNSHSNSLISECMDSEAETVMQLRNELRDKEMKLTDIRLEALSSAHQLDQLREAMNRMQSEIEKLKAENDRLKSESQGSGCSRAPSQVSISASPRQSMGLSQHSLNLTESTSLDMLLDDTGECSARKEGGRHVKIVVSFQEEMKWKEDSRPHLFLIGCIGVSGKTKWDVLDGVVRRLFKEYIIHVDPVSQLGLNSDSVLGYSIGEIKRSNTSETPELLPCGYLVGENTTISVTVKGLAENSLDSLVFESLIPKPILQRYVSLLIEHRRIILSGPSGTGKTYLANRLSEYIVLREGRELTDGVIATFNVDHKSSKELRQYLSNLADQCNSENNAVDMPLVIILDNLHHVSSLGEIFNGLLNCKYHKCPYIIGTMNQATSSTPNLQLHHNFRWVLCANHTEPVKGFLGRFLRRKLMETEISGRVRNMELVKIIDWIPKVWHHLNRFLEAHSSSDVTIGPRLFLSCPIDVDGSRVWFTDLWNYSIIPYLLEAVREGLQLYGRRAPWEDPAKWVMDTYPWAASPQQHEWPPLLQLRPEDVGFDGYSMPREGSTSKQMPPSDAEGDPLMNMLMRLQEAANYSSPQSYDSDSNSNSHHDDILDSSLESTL

Compound: CC1(C)CCc2c(cc(OCC(=O)Nc3ccccc3C(N)=O)c3c(-c4ccccc4)cc(=O)oc23)O1 [CLK8, 2-[2-({12,12-dimethyl-4-oxo-6-phenyl-3,11-dioxatricyclo [8.4.0.0,2,7]tetradeca-1,5,7,9-tetraen-8-yl}oxy)acetamido] benzamide]
- period of circadian rhythm [1]: no period changes
- amplitude of circadian rhythm ([1]; dose dependent): enhances the amplitude
- Peptide spectrum matches, NAV2 [2]: 263
- level of PER2, NPAS2, BMAL1 and CRY1 [3]: comparable to the control samples
- Peptide spectrum matches, BMAL1 [4]: 56
